From patent US11395857B2, “Radiolabeled melanocortin 1 receptor-specific alpha-melanocyte-stimulating hormone analogues for imaging or therapy” (PROVINCIAL HEALTH SERVICES AUTHORITY, priority 2018, dated 2022)
Like-named read-outs stand apart in the source and are kept apart here.

How the values were obtained:
[1] = Biodistribution of 177Lu-labeled αMSH analogues in mice bearing B16F10 mouse melanoma; format: in vivo, C57BL/6J mice; details: mouse, iv, total radioactivity, C57BL/6J mice, B16F10 melanoma
Protocol: (§1) The B16-F10 mouse melanoma cells were cultured and inoculated in mice as described in Example 1.
(§2) For biodistribution studies, approximately 1-2 MBq of ^177Lu-labeled αMSH analogues via tail vein under anesthesia. At 1, 4, 24, and 120 h p.i., the mice were euthanized by CO2 inhalation. Organs/tissues were harvested and the radioactivity was measured as described in Example 1.

B16F10 mouse melanoma = test: as above; format: in vivo, C57BL/6J mice; details: C57BL/6J mice, B16F10 melanoma
Protocol: as §1, §2

Molecule `CCCC[C@H](NC(=O)CN1CCC(NC(=O)[C@H](CCCCNC(=O)CN2CCN(CC(=O)O)CCN(CC(=O)O)CCN(CC(=O)O)CC2)NC(=O)[C@H](CCC(=O)O)NC(=O)CCCc2ccc(I)cc2)CC1)C(=O)N[C@H]1CC(=O)NCCCC[C@@H](C(N)=O)N(C)C(=O)[C@H](Cc2c[nH]c3ccccc23)N(C)C(=O)[C@H](CCCNC(=N)N)N(C)C(=O)[C@@H](Cc2ccccc2)NC(=O)[C@H](Cc2c[nH]cn2)N(C)C1=O` [^177Lu-labeled CCZ01088, metal not drawn] has a tissue uptake at 1 h ([1]; male, seminal glands, 1 h p.i., read-out: Biodistribution, Seminal glands) of 0.52 ± 0.15 %ID/g, a tissue uptake at 4 h ([1]; male, seminal glands, 4 h p.i., read-out: Biodistribution, Seminal glands) of 0.14 ± 0.04 %ID/g and a tissue uptake at 24 h ([1]; male, seminal glands, 24 h p.i., read-out: Biodistribution, Seminal glands) of 0.08 ± 0.07 %ID/g. The tissue uptake at 120 h ([1]; male, seminal glands, 120 h p.i., read-out: Biodistribution, Seminal glands) was 0.04 ± 0.03 %ID/g, the tissue uptake at 4 h ([1]; male, testes, 4 h p.i., read-out: Biodistribution, Testes) was 0.33 ± 0.08 %ID/g and the tissue uptake at 24 h ([1]; male, testes, 24 h p.i., read-out: Biodistribution, Testes) was 0.17 ± 0.01 %ID/g. It also gave a tissue uptake at 120 h ([1]; male, testes, 120 h p.i., read-out: Biodistribution, Testes) of 0.11 ± 0.01 %ID/g, a tissue uptake at 1 h ([1]; adrenal glands, 1 h p.i., read-out: Biodistribution, Adrenal glands) of 3.69 ± 2.09 %ID/g and a tissue uptake at 4 h ([1]; adrenal glands, 4 h p.i., read-out: Biodistribution, Adrenal glands) of 0.88 ± 0.41 %ID/g. For the same molecule, the tissue uptake at 24 h ([1]; adrenal glands, 24 h p.i., read-out: Biodistribution, Adrenal glands) was 0.62 ± 0.34 %ID/g, the tissue uptake at 120 h ([1]; adrenal glands, 120 h p.i., read-out: Biodistribution, Adrenal glands) was 0.34 ± 0.23 %ID/g and the tissue uptake at 1 h ([1]; blood, 1 h p.i., read-out: Biodistribution, Blood) was 7.41 ± 1.64 %ID/g. It also gave a tissue uptake at 4 h ([1]; blood, 4 h p.i., read-out: Biodistribution, Blood) of 1.44 ± 0.39 %ID/g, a tissue uptake at 24 h ([1]; blood, 24 h p.i., read-out: Biodistribution, Blood) of 0.09 ± 0.02 %ID/g and a tissue uptake at 120 h ([1]; blood, 120 h p.i., read-out: Biodistribution, Blood) of 0.01 %ID/g. It also gave a tissue uptake at 1 h ([1]; bone, 1 h p.i., read-out: Biodistribution, Bone) of 0.98 ± 0.12 %ID/g, a tissue uptake at 4 h ([1]; bone, 4 h p.i., read-out: Biodistribution, Bone) of 0.3 ± 0.08 %ID/g and a tissue uptake at 24 h ([1]; bone, 24 h p.i., read-out: Biodistribution, Bone) of 0.23 ± 0.04 %ID/g. It also gave a tissue uptake at 120 h ([1]; bone, 120 h p.i., read-out: Biodistribution, Bone) of 0.13 ± 0.09 %ID/g, a tissue uptake at 1 h ([1]; brain, 1 h p.i., read-out: Biodistribution, Brain) of 0.13 ± 0.02 %ID/g and a tissue uptake at 4 h ([1]; brain, 4 h p.i., read-out: Biodistribution, Brain) of 0.04 ± 0.02 %ID/g. For the same molecule, the tissue uptake at 24 h ([1]; brain, 24 h p.i., read-out: Biodistribution, Brain) was 0.02 ± 0.01 %ID/g, the tissue uptake at 120 h ([1]; brain, 120 h p.i., read-out: Biodistribution, Brain) was 0.01 ± 0.01 %ID/g and the tissue uptake at 1 h ([1]; fat, 1 h p.i., read-out: Biodistribution, Fat) was 0.65 ± 0.37 %ID/g. The tissue uptake at 4 h ([1]; fat, 4 h p.i., read-out: Biodistribution, Fat) was 0.16 ± 0.07 %ID/g, the tissue uptake at 24 h ([1]; fat, 24 h p.i., read-out: Biodistribution, Fat) was 0.06 ± 0.04 %ID/g and the tissue uptake at 120 h ([1]; fat, 120 h p.i., read-out: Biodistribution, Fat) was 0.03 ± 0.01 %ID/g. It also gave a tissue uptake at 1 h ([1]; heart, 1 h p.i., read-out: Biodistribution, Heart) of 1.84 ± 0.31 %ID/g, a tissue uptake at 4 h ([1]; heart, 4 h p.i., read-out: Biodistribution, Heart) of 0.4 ± 0.1 %ID/g and a tissue uptake at 24 h ([1]; heart, 24 h p.i., read-out: Biodistribution, Heart) of 0.13 ± 0.02 %ID/g. For the same molecule, the tissue uptake at 120 h ([1]; heart, 120 h p.i., read-out: Biodistribution, Heart) was 0.07 ± 0.02 %ID/g, the tissue uptake at 1 h ([1]; intestine, 1 h p.i., read-out: Biodistribution, Intestine) was 1.39 ± 0.37 %ID/g and the tissue uptake at 4 h ([1]; intestine, 4 h p.i., read-out: Biodistribution, Intestine) was 0.37 ± 0.11 %ID/g. It also gave a tissue uptake at 24 h ([1]; intestine, 24 h p.i., read-out: Biodistribution, Intestine) of 0.18 ± 0.03 %ID/g, a tissue uptake at 120 h ([1]; intestine, 120 h p.i., read-out: Biodistribution, Intestine) of 0.43 ± 0.55 %ID/g and a tissue uptake at 1 h ([1]; kidneys, 1 h p.i., read-out: Biodistribution, Kidneys) of 13.2 ± 3.61 %ID/g. The tissue uptake at 4 h ([1]; kidneys, 4 h p.i., read-out: Biodistribution, Kidneys) was 13.5 ± 3.47 %ID/g, the tissue uptake at 24 h ([1]; kidneys, 24 h p.i., read-out: Biodistribution, Kidneys) was 8.1 ± 2.24 %ID/g and the tissue uptake at 120 h ([1]; kidneys, 120 h p.i., read-out: Biodistribution, Kidneys) was 1.85 ± 0.57 %ID/g. For the same molecule, the tissue uptake at 1 h ([1]; liver, 1 h p.i., read-out: Biodistribution, Liver) was 2.72 ± 0.27 %ID/g, the tissue uptake at 4 h ([1]; liver, 4 h p.i., read-out: Biodistribution, Liver) was 1.98 ± 0.41 %ID/g and the tissue uptake at 24 h ([1]; liver, 24 h p.i., read-out: Biodistribution, Liver) was 4.7 ± 3.76 %ID/g. The tissue uptake at 120 h ([1]; liver, 120 h p.i., read-out: Biodistribution, Liver) was 0.55 ± 0.18 %ID/g, the tissue uptake at 1 h ([1]; lungs, 1 h p.i., read-out: Biodistribution, Lungs) was 5.51 ± 1.75 %ID/g and the tissue uptake at 4 h ([1]; lungs, 4 h p.i., read-out: Biodistribution, Lungs) was 2.34 ± 1.21 %ID/g. For the same molecule, the tissue uptake at 24 h ([1]; lungs, 24 h p.i., read-out: Biodistribution, Lungs) was 1.19 ± 0.81 %ID/g, the tissue uptake at 120 h ([1]; lungs, 120 h p.i., read-out: Biodistribution, Lungs) was 0.1 ± 0.05 %ID/g and the tissue uptake at 1 h ([1]; muscle, 1 h p.i., read-out: Biodistribution, Muscle) was 0.76 ± 0.14 %ID/g. It also gave a tissue uptake at 4 h ([1]; muscle, 4 h p.i., read-out: Biodistribution, Muscle) of 0.17 ± 0.04 %ID/g, a tissue uptake at 24 h ([1]; muscle, 24 h p.i., read-out: Biodistribution, Muscle) of 0.06 ± 0.02 %ID/g and a tissue uptake at 120 h ([1]; muscle, 120 h p.i., read-out: Biodistribution, Muscle) of 0.03 ± 0.01 %ID/g. It also gave a tissue uptake at 1 h ([1]; pancreas, 1 h p.i., read-out: Biodistribution, Pancreas) of 1.23 ± 0.18 %ID/g, a tissue uptake at 4 h ([1]; pancreas, 4 h p.i., read-out: Biodistribution, Pancreas) of 0.31 ± 0.1 %ID/g and a tissue uptake at 24 h ([1]; pancreas, 24 h p.i., read-out: Biodistribution, Pancreas) of 0.1 ± 0.01 %ID/g. For the same molecule, the tissue uptake at 120 h ([1]; pancreas, 120 h p.i., read-out: Biodistribution, Pancreas) was 0.06 ± 0.01 %ID/g, the tissue uptake at 1 h ([1]; spleen, 1 h p.i., read-out: Biodistribution, Spleen) was 1.99 ± 0.38 %ID/g and the tissue uptake at 4 h ([1]; spleen, 4 h p.i., read-out: Biodistribution, Spleen) was 0.83 ± 0.1 %ID/g. For the same molecule, the tissue uptake at 24 h ([1]; spleen, 24 h p.i., read-out: Biodistribution, Spleen) was 1 ± 0.35 %ID/g, the tissue uptake at 120 h ([1]; spleen, 120 h p.i., read-out: Biodistribution, Spleen) was 0.3 ± 0.12 %ID/g and the tissue uptake at 1 h ([1]; stomach, 1 h p.i., read-out: Biodistribution, Stomach) was 1.2 ± 0.45 %ID/g. For the same molecule, the tissue uptake at 4 h ([1]; stomach, 4 h p.i., read-out: Biodistribution, Stomach) was 0.26 ± 0.14 %ID/g, the tissue uptake at 24 h ([1]; stomach, 24 h p.i., read-out: Biodistribution, Stomach) was 0.31 ± 0.17 %ID/g and the tissue uptake at 120 h ([1]; stomach, 120 h p.i., read-out: Biodistribution, Stomach) was 1.83 ± 2.7 %ID/g. For the same molecule, the tissue uptake at 1 h ([1]; thyroid, 1 h p.i., read-out: Biodistribution, Thyroid) was 1.68 ± 0.26 %ID/g, the tissue uptake at 4 h ([1]; thyroid, 4 h p.i., read-out: Biodistribution, Thyroid) was 0.51 ± 0.13 %ID/g and the tissue uptake at 24 h ([1]; thyroid, 24 h p.i., read-out: Biodistribution, Thyroid) was 0.24 ± 0.04 %ID/g. The tissue uptake at 120 h ([1]; thyroid, 120 h p.i., read-out: Biodistribution, Thyroid) was 0.15 ± 0.03 %ID/g, the tissue to tissue ratio at 1 h ([1]; tumour/blood, 1 h p.i., read-out: Tumour/blood) was 1.42 ± 0.2 and the tissue to tissue ratio at 4 h ([1]; tumour/blood, 4 h p.i., read-out: Tumour/blood) was 7.97 ± 2.18. For the same molecule, the tissue to tissue ratio at 24 h ([1]; tumour/blood, 24 h p.i., read-out: Tumour/blood) was 60.6 ± 23.8, the tissue to tissue ratio at 120 h ([1]; tumour/blood, 120 h p.i., read-out: Tumour/blood) was 84.4 ± 47.2 and the tissue to tissue ratio at 1 h ([1]; tumour/kidney, 1 h p.i., read-out: Tumour/kidney) was 0.8 ± 0.09. For the same molecule, the tissue to tissue ratio at 4 h ([1]; tumour/kidney, 4 h p.i., read-out: Tumour/kidney) was 0.85 ± 0.24, the tissue to tissue ratio at 24 h ([1]; tumour/kidney, 24 h p.i., read-out: Tumour/kidney) was 0.68 ± 0.22 and the tissue to tissue ratio at 120 h ([1]; tumour/kidney, 120 h p.i., read-out: Tumour/kidney) was 0.45 ± 0.21. The tissue to tissue ratio at 1 h ([1]; tumour/muscle, 1 h p.i., read-out: Tumour/muscle) was 13.8 ± 2.48, the tissue to tissue ratio at 4 h ([1]; tumour/muscle, 4 h p.i., read-out: Tumour/muscle) was 65.4 ± 13.7 and the tissue to tissue ratio at 24 h ([1]; tumour/muscle, 24 h p.i., read-out: Tumour/muscle) was 104 ± 53. The tissue to tissue ratio at 120 h ([1]; tumour/muscle, 120 h p.i., read-out: Tumour/muscle) was 35.6 ± 22.4, the excreta dose per gram or mL at 1 h ([1]; urine, 1 h p.i.) was 322 ± 306 %ID/g and the excreta dose per gram or mL at 4 h ([1]; urine, 4 h p.i.) was 106 ± 97.1 %ID/g. The excreta dose per gram or mL at 24 h ([1]; urine, 24 h p.i.) was 3.17 ± 1.25 %ID/g, the excreta dose per gram or mL at 120 h ([1]; urine, 120 h p.i.) was 0.51 ± 0.21 %ID/g and the “Biodistribution, B16F10 tumour” value (B16F10 mouse melanoma; 1 h p.i.) was 10.6 ± 2.95 % ID/g. For the same molecule, the “Biodistribution, B16F10 tumour” value (B16F10 mouse melanoma; 4 h p.i.) was 10.9 ± 2.22 % ID/g, the “Biodistribution, B16F10 tumour” value (B16F10 mouse melanoma; 24 h p.i.) was 5.50 ± 2.36 % ID/g and the “Biodistribution, B16F10 tumour” value (B16F10 mouse melanoma; 120 h p.i.) was 0.88 ± 0.58 % ID/g.
